For orientation: IC50 means the point on the concentration scale where inhibition reaches its midpoint. By melting point is commonly meant the temperature, or range, at which the solid turns liquid.

Molecules are shown by their SMILES. “And” between values parts separate entries of the source, which are not always exact repeats. Equal entries are not always repeated.

Consider seven compounds from publication PMC6151488, “Structure, Absolute Configuration, and Antiproliferative Activity of Abietane and Icetexane Diterpenoids from Salvia ballotiflora” (Molecules : A Journal of Synthetic Chemistry and Natural …, 2017).

In data set [1] the test system is U251 (human glioblastoma). The data set is described as follows: Sulforhodamine B (SRB) cytotoxicity assay, U251. Type of data set: cell-based. To be noted: Homo sapiens. The source says:
(§1) The natural products were screened in vitro against the following human cancer cell lines: human mammary adenocarcinoma (MCF-7), human chronic myelogenous leukemia (K562), human glioblastoma (U251), human lung adenocarcinoma (SKLU-1), human colon cancer (HCT-15), human prostate cancer (PC-3), healthy gingival human fibroblasts (FGH), and normal monkey kidney cell lines, which were supplied by the National Cancer Institute (NCI, USA) and American Type Culture Collection (ATTC). The human tumor cytotoxicity was determined using the protein-binding dye sulforhodamine B (SRB) in a microculture assay to measure cell growth, as described in the protocol established by the NCI [30]. The cell lines were cultured in RPMI-1640 medium supplemented with 10% fetal bovine serum, 2 mM L-glutamine, 10,000 units/mL penicillin G sodium, 10,000 μg/mL streptomycin sulfate, and 25 μg/mL amphotericin B (Gibco), and 1% non-essential amino acids (Gibco). They were maintained at 37 °C in a humidified atmosphere with 5% CO2.
(§2) Cytotoxicity after treatment of the tumors cells and normal cells with the test compounds were determined using the protein-binding dye sulforhodamine B (SRB) in a microculture assay to measure cell growth. The cells were removed from the tissue culture flasks by treatment with trypsin, and diluted with fresh media. Of these cell suspensions, 100 μL containing 5000–10,000 cells per well were pipetted into 96-well microtiter plates (Costar) and the material was incubated at 37 °C for 24 h in a 5% CO2 atmosphere. Subsequently, 100 μL of a solution of the compound obtained by diluting the stocks were added to each well. The cultures were exposed to the compound for 48 h. After the incubation period, cells were fixed to the plastic substratum by the addition of 50 μL of cold 50% aqueous trichloroacetic acid. The plates were incubated at 4 °C for 1 h, washed with tap water, and air-dried. The trichloroacetic-acid-fixed cells were stained by the addition of 0.4% SRB. The free SRB solution was then removed by washing with 1% aqueous acetic-acid. The plates were air-dried, and the bound dye was dissolved by the addition of 10 mM unbuffered Tris base (100 μL). The plates were placed on a shaker for 10 min, and the absorption was determined at 515 nm using an ELISA plate reader (Bio-Tex Instruments).
In general terms: In SRB staining, fixed cells bind dye roughly in proportion to their protein.

Data set [2] relates to SKLU-1 (human lung adenocarcinoma). The experiment in a line: Sulforhodamine B (SRB) cytotoxicity assay, SKLU-1. It counts as cell-based. As to conditions: Homo sapiens; for inhibition at 50 µM: primary screening at 50.0 μM, NC = No cytotoxic.
From the text: as §1, with “CO2. The viability of the cells used in the experiments exceeded 95%, as determined with trypan blue.” for “CO2.”
as §2

For data set [3], the system named is COS-7 normal monkey kidney. The data set is described as follows: Sulforhodamine B (SRB) cytotoxicity assay, COS-7 normal cell line. Type of data set: cell-based. As to conditions: Primates, mean ± SD.
From the text: as §1, with “CO2. The viability of the cells used in the experiments exceeded 95%, as determined with trypan blue.” for “CO2.”
as §2, with “The plates were incubated at 4 °C for 1 h, washed with tap water, and air-dried. The trichloroacetic-acid-fixed cells were stained by the addition of 0.4% SRB. The free SRB solution was then removed by washing with 1% aqueous acetic-acid. The plates were air-dried, and the bound dye was dissolved by the addition of 10 mM unbuffered Tris base (100 μL).” left out

Data set [4] concerns K562 (human chronic myelogenous leukemia). The experiment in a line: Sulforhodamine B (SRB) cytotoxicity assay, K562. Type of data set: cell-based. To be noted: Homo sapiens, K562.
From the text: as §1, with “CO2. The viability of the cells used in the experiments exceeded 95%, as determined with trypan blue.” for “CO2.”
as §2

Data set [5] has as its system MCF-7 (human mammary adenocarcinoma). The data set is described as follows: Sulforhodamine B (SRB) cytotoxicity assay, MCF-7. Type of data set: cell-based. As to conditions: Homo sapiens, MCF7; for inhibition at 50 µM: primary screening at 50.0 μM, NC = No cytotoxic.
From the text: as §1, with “CO2. The viability of the cells used in the experiments exceeded 95%, as determined with trypan blue.” for “CO2.”
as §2

The test system of data set [6] is PC-3 (human prostate cancer). The experiment in a line: Sulforhodamine B (SRB) cytotoxicity assay, PC-3. It counts as cell-based.
From the text: as §1, with “CO2. The viability of the cells used in the experiments exceeded 95%, as determined with trypan blue.” for “CO2.”
as §2

Data set [7] relates to HCT-15 (human colon cancer). The experiment in a line: Sulforhodamine B (SRB) cytotoxicity assay, HCT-15. Type of data set: cell-based.
From the text: as §1, with “CO2. The viability of the cells used in the experiments exceeded 95%, as determined with trypan blue.” for “CO2.”
as §2

The subject of data set [8] is TPA-induced ear edema. The data set is described as follows: TPA-induced ear edema test in mice. It counts as in vivo. To be noted: mice CD-1, 1.0 μmol ear^-1 topical, 4 h after TPA, mean ± SEM; for Inhibition of Edema (%): NA = Non-active. The method, then: Male CD-1 mice weighing 25–30 g were maintained under standard laboratory conditions in the animal house (temperature 24 ± 2 °C) in a 12/12 h light/dark cycle, fed a laboratory diet and water ad libitum, following the Mexican official norm NOM-062-Z00-1999.
The TPA-induced ear edema assay in mice was performed as reported in reference. A solution of TPA (2.5 μg) in ethanol (10 μL) was applied topically to both faces (5 μL each ear) of the right ear of the mice, 10 min after solutions of the test substances in their respective solvents were applied (10 μL each face). The left ear received ethanol (10 μL) first, followed by 20 μL of the respective solvent. The mice were killed with CO2 four hours later. A 7-mm diameter plug was removed from each ear. The swelling was assessed as the difference in weight between the left and the right ear. Control animals received the correspondent solvent in each case. Edema inhibition (EI %) was calculated by the equation EI % = 100 − (B × 100/A), where A is the edema induced by TPA alone and B is the edema induced by TPA plus the sample. Indomethacin and celecoxib were used as reference compounds.

Data set [9] deals with six human cancer cell lines (U251, PC-3, K562, HCT-15, MCF-7, SKLU-1) and FGH. The data set is described as follows: SRB primary screening, whole panel (result in words). Type of data set: cell-based. To be noted: primary screening at 50.0 μM, complete panel. Here is the method:
The same biological activity was also recently described for icetexane-derivatives isolated from Premna and Amentotaxus species. […] These facts prompted us to assay diterpenoids 3, 4, 6–8 and 10 for antiproliferative activity using six human cancer cell lines (U251, PC-3, K562, HCT-15, MCF-7, and SKLU-1), and a primary culture of healthy gingival human fibroblasts (FGH) at 1.0 or 50.0 μM (when cytotoxicity at 50.0 μM results were too high). […] Overall, the antiproliferative activity determined for 7 was lower than that observed for 6.
as §1, with “CO2. The viability of the cells used in the experiments exceeded 95%, as determined with trypan blue.” for “CO2.”
Cytotoxicity after treatment of the tumors cells and normal cells with the test compounds were determined using the protein-binding dye sulforhodamine B (SRB) in a microculture assay to measure cell growth. […] The plates were placed on a shaker for 10 min, and the absorption was determined at 515 nm using an ELISA plate reader (Bio-Tex Instruments).

Data set [10] in a line: Scavenging activity on free radical DPPH. As to conditions: 30 min, 37 °C; for IC50: DPPH 100 μM, mean ± SEM; for DPPH inhibitory effect (%): at 100 μM. Here is the method: Free radical scavenging activity was measured using an adapted method of Mellors and Tappel. The test was carried out in 96-well microplates. A 50-μL aliquot of the solution of the test compound was mixed with 150 μL of an ethanol solution of DPPH (final concentration 100 μM). The mixture was incubated at 37 °C for 30 min, and the absorbance was then measured at 515 nm using a BioTek microplate reader SYNERGY HT. The percent inhibition was determined by comparison with a 100-μM DPPH ethanol blank solution.
(DPPH is a stable violet radical that fades when it is reduced.)

Setting [11] is: SK-LU-1, mean n = 2, read-out: Antiproliferative activity (%), SKLU-1.
Where [12] appears, read: mean n = 2, read-out: Antiproliferative activity (%), MCF-7.

As to `COc1cccc2c1C(=O)c1c(O)c3c(c(O)c1C2=O)C[C@@](O)(C(=O)CO)C[C@@H]3O[C@H]1C[C@H](N)[C@H](O)[C@H](C)O1` [Adriamicyn, adriamycin, reference compound], the IC50 in data set [1] (U-251, 48 h, SRB assay, 48 h exposure, mean ± SD, read-out: IC50 antiproliferative activity, U251) was found to be 80 ± 3 nM; in [2] (SK-LU-1, 48 h, SRB assay, 48 h exposure, mean ± SD, read-out: IC50 antiproliferative activity, SKLU-1), 50 ± 3 nM; in data set [3], 250 ± 9 nM; in [4] (SRB assay, 48 h exposure, mean ± SD, read-out: IC50 antiproliferative activity, K562), 200 ± 20 nM; in data set [5] (SRB assay, 48 h exposure, mean ± SD, read-out: IC50 antiproliferative activity, MCF-7), 230 ± 20 nM. Moreover, the inhibition at 0.5 µM in data set [1] (U-251, positive control at 0.5 μM, mean n = 2, read-out: Antiproliferative activity (%), U251) was 96%; in data set [2] (SK-LU-1, positive control at 0.5 μM, mean n = 2, read-out: Antiproliferative activity (%), SKLU-1), 90%; in data set [4] (positive control at 0.5 μM, mean n = 2, read-out: Antiproliferative activity (%), K562) it was 100%; in data set [5] (positive control at 0.5 μM, mean n = 2, read-out: Antiproliferative activity (%), MCF-7), 99.1%; in [6] (positive control at 0.5 μM, mean n = 2, read-out: Antiproliferative activity (%), PC-3), 85.2%; in data set [7] (positive control at 0.5 μM, mean n = 2, read-out: Antiproliferative activity (%), HCT-15), 86.9%.

Take `Cc1ccc(-c2cc(C(F)(F)F)nn2-c2ccc(S(N)(=O)=O)cc2)cc1` [Celecoxib, celecoxib, reference compound]: in [8], the “Edema” value was determined as 6.94 ± 1.56 mg. The “Inhibition of Edema (%)” value in data set [8] is 54.34 ± 10.28%; in data set [8] (listed as celecoxib), 54.3 ± 10.3%.

The compound `CC(C)c1c(O)c(O)c2c(c1O)C(=O)CC1C3(CCCC1(C)C(=O)O3)C2` (centres unmarked) [Compound 4, 6,7,11,14-Tetrahydro-7-oxoicetexone] showed a melting point of 130 to 135 °C. The inhibition at 50 µM in [1] (U-251, primary screening at 50.0 μM, mean n = 2, NC = No cytotoxic, read-out: Antiproliferative activity (%), U251) is 100%. In addition, the inhibition at 50 µM in data set [2] (setting [11]) came out at 96.9%. Moreover, the inhibition at 50 µM in [4] (primary screening at 50.0 μM, mean n = 2, NC = No cytotoxic, read-out: Antiproliferative activity (%), K562) is 100%. Moreover, in [5] (setting [12]), the inhibition at 50 µM is 99%. Besides, the inhibition at 50 µM in [6] (primary screening at 50.0 μM, mean n = 2, NC = No cytotoxic, read-out: Antiproliferative activity (%), PC-3) turned out to be 80.3%. Besides, the inhibition at 50 µM in data set [7] (primary screening at 50.0 μM, mean n = 2, NC = No cytotoxic, read-out: Antiproliferative activity (%), HCT-15) came out at 76.7%. Further, the “Toxicity to the complete panel (in words)” value in data set [9] is recorded as “very toxic”. Also, in data set [10], the IC50 was determined as 98400 ± 3300 nM and the “DPPH inhibitory effect (%)” value is reported as 64.5%.

With `CC(C)C1=C(O)C(=O)C2=C(C1=O)C(O)CC1C3(C)CCCC21C(O)OC3` (centres unmarked) [Compound 10, conacytone], the inhibition at 50 µM in [2] (setting [11]) was found to be 11.8%; in data set [5] (setting [12]), 14.7%. Moreover, in data set [9], the “Toxicity to the complete panel (in words)” value is “no toxicity”. For the same compound, in data set [8], the “Edema” value came out at 11.77 ± 047 mg. Further, in data set [8], the “Inhibition of Edema (%)” value was 25.4 ± 3.0% and 25.37 ± 2.98 %. In addition, in data set [10], the “DPPH inhibitory effect (%)” value worked out at 4.8%.

As to `COc1ccc2c(c1)c(CC(=O)O)c(C)n2C(=O)c1ccc(Cl)cc1` [Indometacin, Indomethacin, reference compound], in data set [8], the “Edema” value is recorded as 2.88 ± 0.73 mg and the “Inhibition of Edema (%)” value came out at 78.76 ± 7.68 %. Further, the “Inhibition of Edema (%)” value in data set [8] (listed as indomethacine) is given as 78.8 ± 7.7%.

On to `O=c1c(O)c(-c2ccc(O)c(O)c2)oc2cc(O)cc(O)c12` [quercetin, reference compound], for which the half-maximal inhibitory concentration (IC50) in [10] turned out to be 10900 ± 500 nM.

Take `Cc1c(C)c2c(c(C)c1O)CC[C@@](C)(CCC[C@H](C)CCC[C@H](C)CCCC(C)C)O2` [α-tocopherol, reference compound]: in [10], the IC50 is 31700 ± 1040 nM.
